“And” between values parts separate entries of the source, which are not always exact repeats. Equal entries are not always repeated.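 Interpolation was linear, between the two tested concentrations surrounding the appropriate level; five concentrations were tested over 48 hours in 96-well plates. GI50 marks 50% less growth. TGI denotes the concentration required for complete inhibition of growth.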
Experiments:
Assay in all cases: NCI anticancer screen, dose series, 48 h
786-0 renal = tested on: 786-0 renal
BT-549 breast = tested on: BT-549 breast
COLO 205 colon = tested on: COLO 205 colon
HT29 colon = tested on: HT29 colon
KM12 colon = tested on: KM12 colon
MALME-3M melanoma = tested on: MALME-3M melanoma
NCI-H23 lung = tested on: NCI-H23 lung
OVCAR-8 ovarian = tested on: OVCAR-8 ovarian
SNB-75 CNS = tested on: SNB-75 CNS
U251 CNS = tested on: U251 CNS

Row | SMILES | GI50 (786-0 renal) | TGI (786-0 renal) | GI50 (BT-549 breast) | TGI (BT-549 breast) | GI50 (COLO 205 colon) | TGI (COLO 205 colon) | GI50 (HT29 colon) | TGI (HT29 colon) | GI50 (KM12 colon) | TGI (KM12 colon) | GI50 (MALME-3M melanoma) | TGI (MALME-3M melanoma) | GI50 (NCI-H23 lung) | TGI (NCI-H23 lung) | GI50 (OVCAR-8 ovarian) | TGI (OVCAR-8 ovarian) | GI50 (SNB-75 CNS) | TGI (SNB-75 CNS) | GI50 (U251 CNS) | TGI (U251 CNS)
1 | COc1cccc(F)c1C(=O)c1cnc(NC2CCN(S(C)(=O)=O)CC2)nc1N | 6.06 µM | > 25 µM | 5.45 µM | 16.8 µM | 1.49 µM | 5.69 µM | 2.54 µM | 23.3 µM | 2.02 µM | > 20.7 µM | 4.35 µM | 13.7 µM | 3.15 µM | 21.7 µM | 4.08 µM | > 25 µM | 4.13 µM | 9.57 µM | 2.6 µM | > 25 µM
2 | C(=NCCN1CCOCC1)=NC1CCCCC1 | – | > 100 µM | – | > 100 µM | – | > 100 µM | – | > 100 µM | – | > 100 µM | – | > 100 µM | – | > 100 µM | – | > 100 µM | – | > 100 µM | – | > 100 µM
3 | Cc1cc(Cl)cc(OCCn2cc(F)cn2)c1-c1nc(N)nc2c1CN(C(=O)NCC(C)(F)F)C2 | 3.18 µM | > 100 µM | 50.3 µM | > 100 µM | 0.0395 µM | 1.19 µM | 0.0355 µM | > 100 µM | 0.0508 µM | 0.459 µM | 0.0684 µM | > 100 µM | 0.273 µM | > 100 µM | 0.0776 µM | > 100 µM | – | > 100 µM | 0.114 µM | > 100 µM
4 | Cc1ccc(S(=O)(=O)Nc2ccccc2C=O)cc1 | – | 35.9 µM | – | 58.8 µM | – | 33.2 µM | – | 49.3 µM | – | 33.5 µM | – | 46.1 µM | – | 66.8 µM | – | 34.1 µM | – | 57.7 µM | – | 30.2 µM
5 | O=C(Nc1ccc2ncccc2c1)Nc1ccc2ncccc2c1 | – | > 100 µM | – | > 100 µM | – | > 100 µM | – | > 100 µM | – | > 100 µM | – | > 100 µM | – | > 100 µM | – | > 100 µM | – | > 100 µM | – | > 100 µM
6 | S=C(Nc1ccc(Cl)cc1)Nc1ccc(-c2nc3ccccc3s2)cc1 | 16.3 µM | 30.2 µM | 26.3 µM | 61.5 µM | 18.7 µM | 53.7 µM | 17.2 µM | 39.2 µM | 15 µM | 49.1 µM | 15.6 µM | 46.4 µM | 14.1 µM | 27.3 µM | 17.9 µM | 41.7 µM | 13.8 µM | 35.5 µM | 19 µM | > 100 µM
7 | CCOC(=O)c1ccc(NC(=O)Oc2ccc3c(C)cc(=O)oc3c2)cc1 | – | > 100 µM | – | 89.5 µM | – | > 100 µM | – | > 100 µM | – | > 100 µM | – | > 100 µM | – | > 100 µM | – | > 100 µM | – | 98.1 µM | – | > 100 µM
8 | COc1cccc(CC(C)=C(c2ccc(OCCN(C)C)cc2)c2ccc(OCCN(C)C)cc2)c1 | 0.606 µM | 1.27 µM | 4.29 µM | 8.88 µM | 0.626 µM | 1.31 µM | 0.706 µM | 1.91 µM | 4.08 µM | 8.77 µM | 0.564 µM | 1.05 µM | 4.42 µM | 9.24 µM | 2.04 µM | 6.71 µM | 1.46 µM | 6.28 µM | 0.903 µM | 2.42 µM
9 | COc1cc(C(=O)N2CCN(C=O)C2=S)cc(OC)c1OC | 12.7 µM | 28 µM | 25 µM | 62.4 µM | 20.2 µM | 39.4 µM | 26.7 µM | 66.4 µM | 14.4 µM | 29.5 µM | 24.3 µM | 43.3 µM | 25.9 µM | 62 µM | 24 µM | 65.2 µM | 10.9 µM | 34.6 µM | 16.4 µM | 37.8 µM
10 | c1ccc(-c2nnc(-c3ccccn3)s2)nc1 | > 100 µM | > 100 µM | > 100 µM | > 100 µM | > 100 µM | > 100 µM | > 100 µM | > 100 µM | > 100 µM | > 100 µM | > 100 µM | > 100 µM | > 100 µM | > 100 µM | > 100 µM | > 100 µM | 72.9 µM | > 100 µM | > 100 µM | > 100 µM
11 | COC(=O)c1ccc2c(c1)nc(NC(=O)c1ccccc1)n2CCCc1ccccc1 | 4.77 µM | > 100 µM | 3.33 µM | > 100 µM | 3.89 µM | > 100 µM | 6.92 µM | > 100 µM | 4.5 µM | > 100 µM | 5.73 µM | > 100 µM | 5.26 µM | > 100 µM | 4.79 µM | > 100 µM | 18.6 µM | > 100 µM | 2.73 µM | > 100 µM
12 | COC(=O)C[C@](O)(CCCC(C)(C)O)C(=O)O[C@@H]1C(OC)=C[C@]23CCCN2CCc2cc4c(cc2[C@H]13)OCO4 | 0.033 µM | – | 0.0288 µM | – | 0.0283 µM | – | 0.0183 µM | – | 0.0326 µM | 0.885 µM and 0.182 µM | 0.0196 µM | 0.268 µM and 0.0635 µM | 0.0246 µM | 0.548 µM and 0.086 µM | 0.0287 µM | – | 0.0235 µM | 0.657 µM and 0.0931 µM | 0.0223 µM | 0.564 µM and 0.0728 µM
13 | O=C(O)COc1ccc2c(=O)c3sc4c(=O)c5ccccc5c(=O)c4c3c(=O)c2c1 | 21.8 µM | 76.1 µM | 6.99 µM | 21.8 µM | 13.7 µM | 31.4 µM | 22 µM | > 100 µM | 24.3 µM | > 100 µM | 2.12 µM | 4.59 µM | 2.71 µM | 8.57 µM | 24.8 µM | 73.6 µM | 2.06 µM | 11.7 µM | 13.7 µM | 32.8 µM
14 | COc1ccc(OC)c2c1[nH]c(=O)c1c3ccccc3cn21 | 1.88 µM | 3.34 µM | 2.27 µM | 5.29 µM | 1.2 µM | 2.79 µM | 0.813 µM | 2.54 µM | 1.29 µM | 2.89 µM | 1.78 µM | 3.32 µM | 1.49 µM | 3.04 µM | 1.26 µM | 3.36 µM | 1.44 µM | 2.83 µM | 1.37 µM | 2.76 µM
15 | CC[As](CC)SC[C@H](C)C(=O)N1CCC[C@H]1C(=O)O | 0.021 µM | 0.0743 µM | 0.0749 µM | 0.515 µM | 0.0344 µM | 0.14 µM | 0.339 µM | > 100 µM | 0.301 µM | 1.27 µM | 0.0441 µM | 0.207 µM | 0.222 µM | 0.616 µM | 0.123 µM | 0.472 µM | 0.0796 µM | 0.628 µM | 0.197 µM | 0.576 µM
16 | Cn1cc(C2=C(c3ccc(N)cc3)C(=O)NC2=O)c2ccccc21 | 11.9 µM | > 25 µM | 11.4 µM | > 25 µM | 11.6 µM | > 25 µM | 12.5 µM | > 25 µM | 10.9 µM | > 25 µM | > 25 µM | > 25 µM | 21.6 µM | > 25 µM | > 25 µM | > 25 µM | 0.571 µM | > 15.2 µM | 11.4 µM | > 25 µM
17 | Cc1cc(C)c2c(n1)sc1c(Nc3ccc(Cl)cc3)ncnc12 | < 0.01 µM | – | < 0.0161 µM | > 100 µM | 0.0314 µM | > 100 µM | < 0.0152 µM | > 100 µM | 0.139 µM | > 100 µM | 19.3 µM | > 100 µM | < 0.01 µM | > 100 µM | < 0.01 µM | > 100 µM | 0.017 µM | > 26.4 µM | < 0.01 µM | > 100 µM
18 | O=C(Nc1ccc(Nc2ccncc2)cc1)c1ccc([N+](=O)[O-])cc1 | 3.47 µM | 14.6 µM | 11.6 µM | 28.2 µM | 1.9 µM | 3.73 µM | 3.61 µM | 16.5 µM | 4.23 µM | 17.3 µM | 4.89 µM | 17.3 µM | 10.8 µM | > 62.6 µM | 8.44 µM | 32.6 µM | 4.26 µM | 20 µM | 2.49 µM | 7.12 µM
19 | CO/N=C(/C)c1cccc(Nc2cc(-n3nnc4ccccc43)nc3ccccc23)c1 | 45.5 µM | > 100 µM | 63.2 µM | > 100 µM | > 100 µM | > 100 µM | 11.8 µM | > 100 µM | – | 5.78 µM | 16.1 µM | 58 µM | 33.6 µM | > 100 µM | 87.1 µM | > 100 µM | > 100 µM | > 100 µM | > 100 µM | > 100 µM
20 | COc1ccccc1/C=N\N/C(N)=N\N=C\c1ccccc1OC | 0.609 µM | 5.01 µM | 0.785 µM | 3.56 µM | 0.232 µM | 0.631 µM | 0.382 µM | > 55.8 µM | 0.264 µM | 1.36 µM | 0.237 µM | 5.2 µM | 0.618 µM | > 31.2 µM | 0.301 µM | 17.5 µM | 0.149 µM | > 48.5 µM | 1.02 µM | > 39.9 µM
21 | COc1cccc2c1C(=O)c1c(O)c3c(c(O)c1C2=O)C[C@@](O)(C(=O)CO)C[C@@H]3OC1CC(N)CC(C)O1 (some centres not stated) | 0.02 µM | 0.514 µM and 0.568 µM | 0.106 µM | 0.46 µM and 0.215 µM | 0.0823 µM | 0.389 µM and 0.351 µM | 0.0296 µM | 1.1 µM and 0.809 µM | 0.0798 µM and 0.0515 µM | 1.31 µM and 1.89 µM | 0.0491 µM | 0.256 µM and 0.11 µM | 0.0405 µM and 0.0387 µM | 0.325 µM and 0.259 µM | 0.0359 µM and 0.052 µM | 1.13 µM and 0.546 µM | 0.00885 µM and 0.047 µM | 0.195 µM and 0.161 µM | 0.0224 µM and 0.0311 µM | 2.2 µM and 0.873 µM

— PubChem BioAssay (NCI)
